Structures can show the parent of a compound that is named as a salt.

In the experiment the test system is NQO1 specific enzyme activity in BEAS-2B cells. Put plainly: BEAS-2B NQO1 MTT assay. It is filed as cell-based. As to conditions: Homo sapiens, BEAS-2B, 48 h, BEAS-2B cells, 48 hours with compound, MTT readout; read-out: EC50 of NQO1 specific activity induction. An excerpt:
NAD(P)H:quinone oxidoreductase 1 (NQO1), also called DT diaphorase, is a homodimeric FAD-containing enzyme that catalyzes obligatory NAD(P)H-dependent two-electron reductions of quinones and protects cells against the toxic and neoplastic effects of free radicals and reactive oxygen species arising from one-electron reductions. The transcription of NQO1 is finely regulated by NRF2, and thus NQO1 activity is a good marker for NRF2 activation. On day one, frozen BEAS-2B cells (ATCC) are thawed in a water bath, counted, and re-suspended at a concentration of 250,000 cells/mL. Fifty microliters of cells are plated in 384 well black clear-bottomed plates. Plates are incubated at 37° C., 5% CO2 overnight. On day two, plates are centrifuged and 50 nL of compound or controls are added to the cells. Plates are then incubated at 37° C., 5% CO2 for 48 hours. On day four, medium is aspirated from the plate and crude cell lysates are made by adding 13 uL of 1× Cell Signaling Technologies lysis buffer with 1 Complete, Mini, EDTA-free Protease Inhibitor Tablet (Roche) for each 10 mL of lysis buffer. After lysis plates are incubated for 20 minutes at room temperature. Two microliters of lysate are removed for use in Cell Titer Glo assay (Promega) and MTT cocktail is prepared (Prochaska et. al. 1998) for measurement of NQO1 activity. Fifty microliters of MTT cocktail is added to each well, plate is centrifuged, and analyzed on an Envision plate reader (Perkin Elmer) using Absorbance 570 nm label for 30 minutes. Product formation is measured kinetically and the EC50 of NQO1 specific activity induction is calculated by plotting the change in absorbance (Delta OD/min) versus the log of compound concentration followed by 3-parameter fitting.
For the compound `CCC1CN(Cc2cc(C(CC(=O)O)c3ccc4c(nnn4C)c3C)ccc2C)Cc2ccccc2O1` (centres unmarked) [Example 2, 3-(1,4-Dimethyl-1H-benzo[d][1,2,3]triazol-5-yl)-3-(3-((2-ethyl-2,3-dihydrobenzo[f][1,4]oxazepin-4(5H)-yl)methyl)-4-methylphenyl)propanoic Acid, Trifluoroacetic Acid Salt], the EC50 lay within 0.1 to 1 µM.

Take `Cc1ccc(C(CC(=O)O)c2ccc3c(nnn3C)c2C)cc1CN1Cc2ccccc2OC(C)C1` (centres unmarked) [Example 3, trifluoroacetic Acid Salt]: the EC50 lay in the range of 1 to 10 µM.

For `CCC1CN(Cc2cc(C(CCc3cn(CC)nn3)CC(=O)O)ccc2C)Cc2ccccc2O1` (centres unmarked) [Example 4, 5-(1-Ethyl-1H-1,2,3-triazol-4-yl)-3-(3-((2-ethyl-2,3-dihydrobenzo[f][1,4]oxazepin-4(5H)-yl)methyl)-4-methylphenyl)pentanoic Acid, Trifluoroacetic Acid Salt], the EC50 fell in the range of 1 to 10 µM.

Take `CCC1CN(Cc2cc([C@H](CC(=O)O)c3ccc4c(nnn4C)c3C)ccc2C)Cc2ccccc2O1` (stereo partly drawn) [Example 5, (3S)-3-(1,4-Dimethyl-1H-benzo[d][1,2,3]triazol-5-yl)-3-(3-((2-ethyl-2,3-dihydrobenzo[f][1,4]oxazepin-4(5H)-yl)methyl)-4-methylphenyl)propanoic Acid, Trifluoroacetic Acid Salt]: the EC50 was in the range of 0.01 to 0.1 µM.

Turning to `CCC1CN(Cc2cc([C@@H](CC(=O)O)c3ccc4c(nnn4C)c3C)ccc2C)Cc2ccccc2O1` (stereo partly drawn) [Example 6, (3R)-3-(1,4-Dimethyl-1H-benzo[d][1,2,3]triazol-5-yl)-3-(3-((2-ethyl-2,3-dihydrobenzo[f][1,4]oxazepin-4(5H)-yl)methyl)-4-methylphenyl)propanoic Acid, Trifluoroacetic Acid Salt], the EC50 lay in the range of 0.1 to 1 µM.

Take `Cc1ccc(C(c2ccc3c(nnn3C)c2C)C(C)(C)C(=O)O)cc1CN1Cc2ccccc2OC(C)(C)C1` (centres unmarked) [Example 8, 3-(1,4-Dimethyl-1H-benzo[d][1,2,3]triazol-5-yl)-3-(3-((2,2-dimethyl-2,3-dihydrobenzo[f][1,4]oxazepin-4(5H)-yl)methyl)-4-methylphenyl)-2,2-dimethylpropanoic Acid, Formic Acid Salt]: the EC50 was 0.001 to 0.01 µM.

Regarding `Cc1ccc(C(CC(=O)O)c2ccc3c(nnn3C)c2C)cc1CN1CCCC(n2cccn2)C1` (centres unmarked) [Example 9, Ammonium 3-(3-((3-(1H-pyrazol-1-yl)piperidin-1-yl)methyl)-4-methylphenyl)-3-(1,4-dimethyl-1H-benzo[d][1,2,3]triazol-5-yl)propanoate], the EC50 is 1 to 10 µM.

For the compound `Cc1ccc(C(CC(=O)O)c2ccc3c(nnn3C)c2C)cc1CN1CCCC1c1nnc(C(C)C)[nH]1` (centres unmarked) [Example 10, Ammonium 3-(1,4-dimethyl-1H-benzo[d][1,2,3]triazol-5-yl)-3-(3-((2-(5-isopropyl-4H-1,2,4-triazol-3-yl)pyrrolidin-1-yl)methyl)-4-methylphenyl)propanoate], the EC50 lay in the range of 1 to 10 µM.

On to `Cc1ccc(C(CC(=O)O)c2ccc3c(nnn3C)c2C)cc1CN1CCc2cnc(C(C)C)nc2C1` (centres unmarked) [Example 11, Ammonium 3-(1,4-dimethyl-1H-benzo[d][1,2,3]triazol-5-yl)-3-(3-((2-isopropyl-5,6-dihydropyrido[3,4-d]pyrimidin-7(8H)-yl)methyl)-4-methylphenyl)propanoate], for which the EC50 was in the range of 1 to 10 µM.

Regarding `CCc1nc(C2CCCCN2Cc2cc(C(CC(=O)O)c3ccc4c(nnn4C)c3C)ccc2C)no1` (centres unmarked) [Example 12, Ammonium 3-(1,4-dimethyl-1H-benzo[d][1,2,3]triazol-5-yl)-3-(3-((2-(5-ethyl-1,2,4-oxadiazol-3-yl)piperidin-1-yl)methyl)-4-methylphenyl)propanoate], the half-maximal effective concentration (EC50) fell in the range of 0.1 to 1 µM.

On to `CCc1ncc2c(n1)CN(Cc1cc(C(CC(=O)O)c3ccc4c(nnn4C)c3C)ccc1C)CC2` (centres unmarked) [Example 13, Ammonium 3-(1,4-dimethyl-1H-benzo[d][1,2,3]triazol-5-yl)-3-(3-((2-ethyl-5,6-dihydropyrido[3,4-d]pyrimidin-7(8H)-yl)methyl)-4-methylphenyl)propanoate], for which the EC50 lay within 1 to 10 µM.

Consider `Cc1ccc(C(CC(=O)O)c2ccc3c(nnn3C)c2C)cc1CN1CCOc2ccc(C#N)cc2C1` (centres unmarked) [Example 14, Ammonium 3-(3-((7-cyano-2,3-dihydrobenzo[f][1,4]oxazepin-4(5H)-yl)methyl)-4-methylphenyl)-3-(1,4-dimethyl-1H-benzo[d][1,2,3]triazol-5-yl)propanoate], for which the EC50 is 1 to 10 µM.

`Cc1ccc(C(CC(=O)O)c2ccc3c(nnn3C)c2C)cc1CN(C)Cc1ccccc1Br` (centres unmarked) [Example 15, Ammonium 3-(3-(((2-bromobenzyl)(methyl)amino)methyl)-4-methylphenyl)-3-(1,4-dimethyl-1H-benzo[d][1,2,3]triazol-5-yl)propanoate]: the concentration for a half-maximal effect (EC50) fell in the range of 1 to 10 µM.

As to `Cc1ccc(C(CC(=O)O)c2ccc3c(nnn3C)c2C)cc1CN(C)Cc1ccc(Br)cc1` (centres unmarked) [Example 16, Ammonium 3-(3-(((4-bromobenzyl)(methyl)amino)methyl)-4-methylphenyl)-3-(1,4-dimethyl-1H-benzo[d][1,2,3]triazol-5-yl)propanoate], the EC50 fell in the range of 1 to 10 µM.

Regarding `Cc1ccc(C(CC(=O)O)c2ccc3c(nnn3C)c2C)cc1CN(C)Cc1cccc(Br)c1` (centres unmarked) [Example 17, Ammonium 3-(3-(((3-bromobenzyl)(methyl)amino)methyl)-4-methylphenyl)-3-(1,4-dimethyl-1H-benzo[d][1,2,3]triazol-5-yl)propanoate], the EC50 lay in the range of 1 to 10 µM.

With `Cc1ccc(C2(C)CN(Cc3cc(C(CC(=O)O)c4ccc5c(nnn5C)c4C)ccc3C)CCO2)cc1` (centres unmarked) [Example 18, 3-(1,4-Dimethyl-1H-benzo[d][1,2,3]triazol-5-yl)-3-(4-methyl-3-((2-methyl-2-(p-tolyl)morpholino)methyl)phenyl)propanoic Acid, Formic Acid Salt], the concentration for a half-maximal effect (EC50) lay in the range of 1 to 10 µM.

With `CCC1c2cccn2CCN1Cc1cc(C(CC(=O)O)c2ccc3c(nnn3C)c2C)ccc1C` (centres unmarked) [Example 19, 3-(1,4-dimethyl-1H-benzo[d][1,2,3]triazol-5-yl)-3-(3-((1-ethyl-3,4-dihdyropyrrolo[1,2-a]pyrazin-2(1H)-yl)methyl)-4-methylphenyl)propanoic acid, formic acid salt], the EC50 is 1 to 10 µM.

As to `COc1ccc(CN(Cc2cc(C(CC(=O)O)c3ccc4c(nnn4C)c3C)ccc2C)C2CC2)cc1` (centres unmarked) [Example 20, 3-(3-((cyclopropyl(4-methoxybenzyl)amino)meth-yl)-4-methylphenyl)-3-(1,4-dimethyl-1H-benzo[d][1,2,3]triazol-5-yl)propanoic acid, formic acid salt], the EC50 fell in the range of 0.1 to 1 µM.

With `COc1ccc(C2COCCN2Cc2cc(C(CC(=O)O)c3ccc4c(nnn4C)c3C)ccc2C)cc1` (centres unmarked) [Example 21, 3-(1,4-dimethyl-1H-benzo[d][1,2,3]triazol-5-yl)-3-(3-((3-(4-methoxyphenyl)morpholino)methyl)-4-methylphenyl)propanoic acid, formic acid salt], the EC50 fell in the range of 1 to 10 µM.

Consider `Cc1ccc(C(c2ccc3c(nnn3C)c2C)C(C)(C)C(=O)O)cc1CN1Cc2cnccc2OC(C)(C)C1` (centres unmarked) [Example 22, 3-(1,4-Dimethyl-1H-benzo[d][1,2,3]triazol-5-yl)-3-(3-((2,2-dimethyl-2,3-dihydropyrido[3,4-f][1,4]oxazepin-4(5H)-yl)methyl)-4-methylphenyl)-2,2-dimethylpropanoic Acid, Trifluoroacetic Acid], for which the EC50 lay within 0.001 to 0.01 µM.
